{"source": "paper PMC9270327", "about": "(Communications Biology, 2022)", "key": {"[1]": {"system": "SARS-CoV-2 Alpha (B.1.1.7), Caco-2 cells", "format": "cell-based", "conditions": "for SARS-CoV-2 infection, Mean (0 nM = 100): Fig. 6c, VOC Alpha"}, "TMPRSS2": {"molecular_target": "TMPRSS2 (Homo sapiens, UniProt O15393)", "sequence (O15393 whole entry)": "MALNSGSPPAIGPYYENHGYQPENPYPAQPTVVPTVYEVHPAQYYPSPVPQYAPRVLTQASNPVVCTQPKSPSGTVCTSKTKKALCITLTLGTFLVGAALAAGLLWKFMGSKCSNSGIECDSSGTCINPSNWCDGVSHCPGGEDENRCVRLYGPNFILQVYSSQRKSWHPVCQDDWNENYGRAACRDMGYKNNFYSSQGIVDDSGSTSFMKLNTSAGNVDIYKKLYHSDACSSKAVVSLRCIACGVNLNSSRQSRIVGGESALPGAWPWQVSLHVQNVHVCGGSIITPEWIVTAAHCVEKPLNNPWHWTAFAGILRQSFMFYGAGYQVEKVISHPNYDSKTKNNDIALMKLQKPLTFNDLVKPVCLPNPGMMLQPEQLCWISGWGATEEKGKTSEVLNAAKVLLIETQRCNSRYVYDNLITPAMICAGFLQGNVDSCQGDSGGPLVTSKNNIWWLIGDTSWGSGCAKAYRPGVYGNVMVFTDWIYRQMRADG", "test": "Cell culture medium stability: residual TMPRSS2 inhibition after incubation in medium", "description": "The activity of the compounds against the recombinant human enzymes was determined in enzyme inhibition assays. […] The measurements were performed on a Tecan infinite® M1000 and the fluorescence intensity was measured by exciting the AMC fluorophore at 380 nm wavelength and recording emission at 460 nm wavelength. […] Fluorescence intensities and absorption were measured every 2 min for 2 h or as endpoint after 2 h. […] To determine the IC50 values, the concentration-response data were plotted with the program GraphPad prism version 8.4.2 (San Diego, California) and a nonlinear regression fit with the equation [Inhibitor] vs. normalized response was applied. The inhibitory constant Ki was calculated from the IC50 values using the Cheng–Prusoff equation (Ki = IC50/[S]/KM) for competitive reversible inhibitors[66].\nThe stability of the inhibitors was measured according to a modified procedure from ref. [67]. […] At indicated timepoints, 100 µL samples were taken and mixed with 200 µL of ethanol to precipitate proteins. […] The supernatant was aspirated and analyzed using analytical HPLC. The residual inhibitory constants Ki after incubation was assessed by mixing serial dilutions of the inhibitor with recombinant TMPRSS2 as described above.\nwere mixed with recombinant TMPRSS2, followed by the addition of the fluorogenic reference\nShown are the means ± SD of n=1 experiment performed in triplicates."}}, "note": "Read-outs that look alike come from different tables or passages of the source."}
{"substance": "ace-Arg-Pro-Arg-kbt [Compound 2]", "values": [{"measurement": "SARS-CoV-2 infection, Mean (0 nM = 100)", "setting": "[1]; compound 32 nM", "result": 106.285}, {"measurement": "SARS-CoV-2 infection, Mean (0 nM = 100)", "setting": "[1]; compound 160 nM", "result": 107.747}, {"measurement": "SARS-CoV-2 infection, Mean (0 nM = 100)", "setting": "[1]; compound 800 nM", "result": 109.671}, {"measurement": "SARS-CoV-2 infection, Mean (0 nM = 100)", "setting": "[1]; compound 4000 nM", "result": 112.829}, {"measurement": "SARS-CoV-2 infection, Mean (0 nM = 100)", "setting": "[1]; compound 20000 nM", "result": 1.3092}, {"measurement": "SARS-CoV-2 infection, Mean (0 nM = 100)", "setting": "[1]; compound 100000 nM", "result": -2.734}, {"measurement": "IC50", "setting": "[1]; read-out: IC50 SARS-CoV-2 Alpha", "result": "~20", "unit": "µM"}, {"measurement": "Residual TMPRSS2 activity, Mean (0 nM = 100)", "setting": "TMPRSS2; inhibitor 0.0167 nM, 0 min in cell culture medium", "result": 98.9717}, {"measurement": "Residual TMPRSS2 activity, Mean (0 nM = 100)", "setting": "TMPRSS2; inhibitor 0.0167 nM, 30 min in cell culture medium", "result": 101.323}, {"measurement": "Residual TMPRSS2 activity, Mean (0 nM = 100)", "setting": "TMPRSS2; inhibitor 0.0167 nM, 60 min in cell culture medium", "result": 96.8723}, {"measurement": "Residual TMPRSS2 activity, Mean (0 nM = 100)", "setting": "TMPRSS2; inhibitor 0.0167 nM, 120 min in cell culture medium", "result": 98.5343}, {"measurement": "Residual TMPRSS2 activity, Mean (0 nM = 100)", "setting": "TMPRSS2; inhibitor 0.0167 nM, 24 h in cell culture medium", "result": 98.1961}, {"measurement": "Residual TMPRSS2 activity, Mean (0 nM = 100)", "setting": "TMPRSS2; inhibitor 0.0167 nM, 10 d in cell culture medium", "result": 98.4437}, {"measurement": "Residual TMPRSS2 activity, Mean (0 nM = 100)", "setting": "TMPRSS2; inhibitor 0.0167 nM, positive ctrl", "result": 97.6368}, {"measurement": "Residual TMPRSS2 activity, Mean (0 nM = 100)", "setting": "TMPRSS2; inhibitor 0.167 nM, 0 min in cell culture medium", "result": 100.63}, {"measurement": "Residual TMPRSS2 activity, Mean (0 nM = 100)", "setting": "TMPRSS2; inhibitor 0.167 nM, 30 min in cell culture medium", "result": 100.761}, {"measurement": "Residual TMPRSS2 activity, Mean (0 nM = 100)", "setting": "TMPRSS2; inhibitor 0.167 nM, 60 min in cell culture medium", "result": 103.84}, {"measurement": "Residual TMPRSS2 activity, Mean (0 nM = 100)", "setting": "TMPRSS2; inhibitor 0.167 nM, 120 min in cell culture medium", "result": 96.4654}, {"measurement": "Residual TMPRSS2 activity, Mean (0 nM = 100)", "setting": "TMPRSS2; inhibitor 0.167 nM, 24 h in cell culture medium", "result": 97.7945}, {"measurement": "Residual TMPRSS2 activity, Mean (0 nM = 100)", "setting": "TMPRSS2; inhibitor 0.167 nM, 10 d in cell culture medium", "result": 101.036}, {"measurement": "Residual TMPRSS2 activity, Mean (0 nM = 100)", "setting": "TMPRSS2; inhibitor 0.167 nM, positive ctrl", "result": 98.5654}, {"measurement": "Residual TMPRSS2 activity, Mean (0 nM = 100)", "setting": "TMPRSS2; inhibitor 1.665 nM, 0 min in cell culture medium", "result": 97.2536}, {"measurement": "Residual TMPRSS2 activity, Mean (0 nM = 100)", "setting": "TMPRSS2; inhibitor 1.665 nM, 30 min in cell culture medium", "result": 96.1305}, {"measurement": "Residual TMPRSS2 activity, Mean (0 nM = 100)", "setting": "TMPRSS2; inhibitor 1.665 nM, 60 min in cell culture medium", "result": 95.956}, {"measurement": "Residual TMPRSS2 activity, Mean (0 nM = 100)", "setting": "TMPRSS2; inhibitor 1.665 nM, 120 min in cell culture medium", "result": 95.462}, {"measurement": "Residual TMPRSS2 activity, Mean (0 nM = 100)", "setting": "TMPRSS2; inhibitor 1.665 nM, 24 h in cell culture medium", "result": 97.8646}, {"measurement": "Residual TMPRSS2 activity, Mean (0 nM = 100)", "setting": "TMPRSS2; inhibitor 1.665 nM, 10 d in cell culture medium", "result": 97.0442}, {"measurement": "Residual TMPRSS2 activity, Mean (0 nM = 100)", "setting": "TMPRSS2; inhibitor 1.665 nM, positive ctrl", "result": 88.6541}, {"measurement": "Residual TMPRSS2 activity, Mean (0 nM = 100)", "setting": "TMPRSS2; inhibitor 16.65 nM, 0 min in cell culture medium", "result": 83.5545}, {"measurement": "Residual TMPRSS2 activity, Mean (0 nM = 100)", "setting": "TMPRSS2; inhibitor 16.65 nM, 30 min in cell culture medium", "result": 80.8705}, {"measurement": "Residual TMPRSS2 activity, Mean (0 nM = 100)", "setting": "TMPRSS2; inhibitor 16.65 nM, 60 min in cell culture medium", "result": 72.3193}, {"measurement": "Residual TMPRSS2 activity, Mean (0 nM = 100)", "setting": "TMPRSS2; inhibitor 16.65 nM, 120 min in cell culture medium", "result": 83.5842}, {"measurement": "Residual TMPRSS2 activity, Mean (0 nM = 100)", "setting": "TMPRSS2; inhibitor 16.65 nM, 24 h in cell culture medium", "result": 87.4426}, {"measurement": "Residual TMPRSS2 activity, Mean (0 nM = 100)", "setting": "TMPRSS2; inhibitor 16.65 nM, 10 d in cell culture medium", "result": 88.0057}, {"measurement": "Residual TMPRSS2 activity, Mean (0 nM = 100)", "setting": "TMPRSS2; inhibitor 16.65 nM, positive ctrl", "result": 59.7774}, {"measurement": "Residual TMPRSS2 activity, Mean (0 nM = 100)", "setting": "TMPRSS2; inhibitor 166.5 nM, 0 min in cell culture medium", "result": 18.9266}, {"measurement": "Residual TMPRSS2 activity, Mean (0 nM = 100)", "setting": "TMPRSS2; inhibitor 166.5 nM, 30 min in cell culture medium", "result": 17.6545}, {"measurement": "Residual TMPRSS2 activity, Mean (0 nM = 100)", "setting": "TMPRSS2; inhibitor 166.5 nM, 60 min in cell culture medium", "result": 24.0301}, {"measurement": "Residual TMPRSS2 activity, Mean (0 nM = 100)", "setting": "TMPRSS2; inhibitor 166.5 nM, 120 min in cell culture medium", "result": 22.2899}, {"measurement": "Residual TMPRSS2 activity, Mean (0 nM = 100)", "setting": "TMPRSS2; inhibitor 166.5 nM, 24 h in cell culture medium", "result": 22.0487}, {"measurement": "Residual TMPRSS2 activity, Mean (0 nM = 100)", "setting": "TMPRSS2; inhibitor 166.5 nM, 10 d in cell culture medium", "result": 39.6688}, {"measurement": "Residual TMPRSS2 activity, Mean (0 nM = 100)", "setting": "TMPRSS2; inhibitor 166.5 nM, positive ctrl", "result": 18.9416}, {"measurement": "Residual TMPRSS2 activity, Mean (0 nM = 100)", "setting": "TMPRSS2; inhibitor 1665 nM, 0 min in cell culture medium", "result": -1.499}, {"measurement": "Residual TMPRSS2 activity, Mean (0 nM = 100)", "setting": "TMPRSS2; inhibitor 1665 nM, 30 min in cell culture medium", "result": 5.536}, {"measurement": "Residual TMPRSS2 activity, Mean (0 nM = 100)", "setting": "TMPRSS2; inhibitor 1665 nM, 60 min in cell culture medium", "result": 0.2889}, {"measurement": "Residual TMPRSS2 activity, Mean (0 nM = 100)", "setting": "TMPRSS2; inhibitor 1665 nM, 120 min in cell culture medium", "result": -1.86}, {"measurement": "Residual TMPRSS2 activity, Mean (0 nM = 100)", "setting": "TMPRSS2; inhibitor 1665 nM, 24 h in cell culture medium", "result": -0.886}, {"measurement": "Residual TMPRSS2 activity, Mean (0 nM = 100)", "setting": "TMPRSS2; inhibitor 1665 nM, 10 d in cell culture medium", "result": 10.1282}, {"measurement": "Residual TMPRSS2 activity, Mean (0 nM = 100)", "setting": "TMPRSS2; inhibitor 1665 nM, positive ctrl", "result": 0.02381}]}
